In ChEMBL document CHEMBL4842348 (J Med Chem, 2021):

What was measured:
[1] = Drug recovery in bile duct cannulated single po dosed WH rat assessed as recovered parent compound in feces relative to total recovery; type: ADME, organism-based; settings: in vivo
[2] = Plasma clearance in rhesus monkey at 0.5 mg/kg, iv; type: ADME, organism-based, Macaca mulatta
[3] = Oral bioavailability in high fat diet fed dog at 1 mg/kg in Imwitor/Tween; type: ADME, organism-based, Canis lupus familiaris; settings: in vivo
[4] = Cmax in Beagle dog at 2 mg/kg, po; type: ADME, organism-based, Canis lupus familiaris; design: route oral, dose 2 mg/kg; settings: in vivo
[5] = Drug recovery in bile duct cannulated single po dosed rhesus monkey assessed as recovered parent compound in bile relative to total recovery; type: ADME, organism-based, Macaca mulatta; settings: in vivo
[6] = Cmax in CD1 mouse at 2 mg/kg, po; type: ADME, organism-based; design: route oral, dose 2 mg/kg; settings: in vivo
[7] = Dose normalized AUC in CD1 mouse at 1 mg/kg, iv and 2 mg/kg, po; type: ADME, organism-based; settings: in vivo
[8] = Tmax in rhesus monkey at 2 mg/kg, po; type: ADME, organism-based, Macaca mulatta; settings: in vivo
[9] = Terminal half life in DIO NFR-transgenic mouse plasma at 10 mg/kg, po once daily for 14 days; type: ADME, organism-based; settings: time 14 day, read-out: beta t1/2 (converted)
[10] = Normalized AUC (0 to 72 hrs) in fasted dog at 1 mg/kg, po in 0.5% methocel; type: ADME, organism-based, Canis lupus familiaris; settings: in vivo
[11] = Cmax in fasted dog at 1 mg/kg, po in 0.5% methocel; type: ADME, organism-based, Canis lupus familiaris; design: route oral, dose 1 mg/kg; settings: in vivo
[12] = Drug recovery in bile duct cannulated single po dosed rhesus monkey assessed as recovered parent compound in urine relative to total recovery; type: ADME, organism-based, Macaca mulatta; settings: in vivo
[13] = Tmax in Beagle dog at 2 mg/kg, po; type: ADME, organism-based, Canis lupus familiaris; settings: in vivo
[14] = MRT in Beagle dog at 0.5 mg/kg, iv; type: ADME, organism-based, Canis lupus familiaris; settings: in vivo
[15] = Oral bioavailability in Beagle dog at 2 mg/kg; type: ADME, organism-based, Canis lupus familiaris; settings: in vivo
[16] = Drug recovery in bile duct cannulated single po dosed rhesus monkey assessed as recovered parent compound in feces relative to total recovery; type: ADME, organism-based, Macaca mulatta; settings: in vivo
[17] = Drug recovery in bile duct cannulated single po dosed WH rat assessed as recovered parent compound in bile relative to total recovery; type: ADME, organism-based; settings: in vivo
[18] = Half life in DIO wild type mouse plasma at 10 mg/kg, po qd treated for 40 days; type: ADME, organism-based; settings: time 40 day
[19] = Half life in lean NFR-transgenic mouse adipose tissue at 10 mg/kg, po qd treated for 40 days; type: ADME, organism-based; settings: time 40 day
[20] = Half life in NFR-transgenic mouse plasma at 10 mg/kg, po single dose; type: ADME, organism-based
[21] = Drug recovery in bile duct cannulated single iv dosed WH rat assessed as recovered total feces radioactivity; type: ADME, organism-based; settings: in vivo
[22] = Drug recovery in bile duct cannulated single po dosed rhesus monkey assessed as recovered total bile radioactivity; type: ADME, organism-based, Macaca mulatta; settings: in vivo
[23] = Oral bioavailability in fasted dog at 1 mg/kg in Imwitor/Tween; type: ADME, organism-based, Canis lupus familiaris; settings: in vivo

In the case of `COc1ncc(-c2ccc(C(=O)O)cc2C)cc1-c1ccc(C(F)(F)F)cc1[C@@H]1CC[C@H]2[C@@H](c3cc(C(F)(F)F)cc(C(F)(F)F)c3)OC(=O)N12`, the Drug recovery [1] is reported as > 98%, the clearance [2] is reported as 0.39 mL/min/kg and the bioavailability [3] is reported as 48%. The Cmax [4] was 690 nM, the Drug recovery [5] was < 1% and the Cmax [6] was 430 nM. The AUC/dose [7] was 9.2 µM·h, the Tmax [8] was 6.7 h and the half-life at […] [9] was 3.8 h. For the same compound, the AUC/dose [10] was 6.5 µM·kg·h/mg, the Cmax [11] was 500 nM and the Drug recovery [12] was > 99%. The Tmax [13] was 1.7 h, the MRT [14] was 18 h and the bioavailability [15] was 14%. For the same compound, the Drug recovery [16] was 95%, the Drug recovery [17] was < 2% and the half-life [18] was 67.2 h. It also gave a half-life [19] of 36 h, a half-life [20] of 12 h and a Drug recovery [21] of 15%. For the same compound, the Drug recovery [22] was > 99% and the bioavailability [23] was 53%.
